We go through four compounds from BindingDB's records for doi:10.1021/acschembio.7b00186 (University of Strasburg, 2017).

Each structure is given as a SMILES string.

The first assay deals with T1, ADP-ribosyl cyclase/cyclic ADP-ribose hydrolase [1-303] (Blood fluke, UniProt Q32TF5).
T1 construct: 1-303
T1 sequence (Q32TF5 whole entry): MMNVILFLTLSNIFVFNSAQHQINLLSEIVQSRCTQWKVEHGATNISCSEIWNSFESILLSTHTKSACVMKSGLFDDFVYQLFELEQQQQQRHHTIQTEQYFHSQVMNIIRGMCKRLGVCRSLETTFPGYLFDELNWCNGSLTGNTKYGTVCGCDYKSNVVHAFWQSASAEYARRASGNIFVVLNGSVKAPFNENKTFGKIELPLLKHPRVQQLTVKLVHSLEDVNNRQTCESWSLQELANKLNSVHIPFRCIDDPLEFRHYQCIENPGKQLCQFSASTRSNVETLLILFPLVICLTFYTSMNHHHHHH
As to the kind of experiment: NAD glycohydrolase assay. The conditions noted are these: pH 7.4; 37 °C. Here is the method:
(§1) SmNACE activity and inhibition were measured with a sensitive, continuous, fluorometric assay platform that used 1,N6-ethenonicotinamide adenine dinucleotide (εNAD; Sigma-Aldrich, Inc.) as a substrate. This assay consists of measuring the appearance of the fluorescent εADP-ribose reaction product with excitation (λexc) and emission (λem) wavelengths of 310 and 410 nm, respectively, at 37 °C using the thermostatically controlled Spectramax Gemini XPS fluorescence plate reader (100 uL reaction volume; Molecular Devices, LLC) or the thermostatically controlled RF-5301PC spectrofluorophotometer (1 mL reaction volume; Shimadzu Scientific Instruments). The biochemical assay with 100 ug/mL of recombinant SmNACE was carried out in a 10 mM potassium phosphate buffer, at pH 7.4, containing 0.05% (w/v) emulphogen.
As to `O=C(Nc1nc(=O)c2ccccc2s1)c1ccco1` [SmNACE inhibitor, 3], the concentration for half-maximal inhibition (IC50) (as a rule, the concentration that gives 50% inhibition) stood at 2.2 µM.

In the case of `Cc1occc1C(=O)N/N=C/c1cc(Cl)ccc1O` [SmNACE inhibitor, 2], the IC50 was found to be 0.033 µM.

`Cc1occc1C(=O)N/N=C/c1ccc(O)c(O)c1` [SmNACE inhibitor, 1] gave a concentration for half-maximal inhibition (IC50) of 88 µM.

In turn, `Cc1ccc2c(c1)C[N]1NC(C3CCOC3C)[O][Zn+]1[O]2` (stereo not drawn) [Zn(II) complex of 2] had a half-maximal inhibitory concentration (IC50) of 0.33 µM.

The next assay concerns the target T2, ADP-ribosyl cyclase/cyclic ADP-ribose hydrolase (Blood fluke, UniProt Q32TF5).
T2 sequence (Q32TF5 whole entry): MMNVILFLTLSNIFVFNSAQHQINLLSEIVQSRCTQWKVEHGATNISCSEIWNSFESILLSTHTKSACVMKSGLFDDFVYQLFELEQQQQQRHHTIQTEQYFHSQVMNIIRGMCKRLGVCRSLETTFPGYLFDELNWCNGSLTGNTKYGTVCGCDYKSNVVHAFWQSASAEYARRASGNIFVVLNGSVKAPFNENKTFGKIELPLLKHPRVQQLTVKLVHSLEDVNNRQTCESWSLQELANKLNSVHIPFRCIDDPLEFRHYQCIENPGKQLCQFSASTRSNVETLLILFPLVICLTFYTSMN
Nature of the assay: NAD glycohydrolase assay. The conditions noted are these: pH 7.4; 37 °C. Here is the method: as §1
`O=C(Nc1nc(=O)c2ccccc2s1)c1ccco1` [SmNACE inhibitor, 3] gave an IC50 greater than 20 µM.

Compound `Cc1occc1C(=O)N/N=C/c1cc(Cl)ccc1O` [SmNACE inhibitor, 2] registered an IC50 of 0.126 µM.

`Cc1occc1C(=O)N/N=C/c1ccc(O)c(O)c1` [SmNACE inhibitor, 1]: it took 69 µM to reach half-maximal inhibition (IC50).

With `Cc1ccc2c(c1)C[N]1NC(C3CCOC3C)[O][Zn+]1[O]2` (stereo not drawn) [Zn(II) complex of 2], the IC50 was greater than 200 µM.
